Assay results published in ChEMBL document CHEMBL2095176, “GSK Tuberculosis Screening Data”.
Converted amounts (≈) assume the structure as drawn.

Tested on: Mycobacterium tuberculosis variant bovis BCG
Experiment: microbe, parasite or virus in culture
Type: functional

| Compound | MIC90 [µM] |
| --- | --- |
| Cn1c(CNCCc2nc(C(=O)N3Cc4ccccc4C3)cs2)nc2ccccc21 | 8.1 (≈ 3.38 µg/mL) |
| CCCCOc1ccc(NC(=O)C2CCCCC2)cc1 | 8.1 (≈ 2.23 µg/mL) |
| CCn1c(-c2nonc2N)nc2c(C#Cc3ccccc3)ncc(OCCCCN)c21 | 8.1 (≈ 3.38 µg/mL) |
| C=CCc1cc(C(=O)NC2CCC(C(C)(C)C)CC2)ccc1OC (configuration not stated) | 8.1 (≈ 2.67 µg/mL) |
| COc1ccc(-c2cc(NC(=O)c3ccc(F)cc3Cl)ccc2OC)cc1 | 8.2 (≈ 3.16 µg/mL) |
| O=C(CNc1ccccc1Nc1ccccc1)N1CCCC1 | 8.2 (≈ 2.42 µg/mL) |
| O=C(CSc1nnc(Nc2ccccc2)s1)NNC(=O)c1cccs1 | 8.2 (≈ 3.21 µg/mL) |
| c1ccc(Cc2nn3c(-c4ccccc4)nnc3s2)cc1 | 8.2 (≈ 2.4 µg/mL) |
| O=C(/C=C/c1ccccc1)N1CCN(Cc2cccc(OCc3ccccc3)c2)CC1 | 8.3 (≈ 3.42 µg/mL) |
| O=C(NNC(=O)c1[nH]nc2ccccc12)c1ccco1 | 8.3 (≈ 2.24 µg/mL) |
| O=C(Cn1c(SCc2ccccc2F)nc2ccncc21)Nc1ccc(Br)cc1F | 8.3 (≈ 4.06 µg/mL) |
| CC[C@H]1CN2CC[C@@H]1C[C@H]2[C@H](O)c1cc(-c2cccnc2)nc2ccc(OC)cc12 | 8.3 (≈ 3.35 µg/mL) |
| CC(C)c1ccc(-c2cncc(N3CCN(c4ccncc4)CC3)n2)cc1 | 5.1 (≈ 1.83 µg/mL) |
| O=C(CCCSc1ccccc1)NNC(=O)c1cccs1 | 3.6 (≈ 1.15 µg/mL) |
| O=C(NCCNCc1cc(-c2cncc3ccccc23)cs1)c1ccc(Cl)cc1 | 8.4 (≈ 3.54 µg/mL) |
| CN1CC[C@@H](Oc2cc(-c3noc(-c4ccc(Br)s4)n3)ccc2C(F)(F)F)C1 | 8.4 (≈ 3.98 µg/mL) |
| CN(C)CCCC(=O)Nc1[nH]nc2cnc(-c3cncc(-c4ccccc4)c3)cc12 | 8.4 (≈ 3.36 µg/mL) |
| CCn1c(=O)c(=O)[nH]c2cc(C(=O)Nc3ccccc3Nc3ccc(OC)cc3)ccc21 | 0.9 (≈ 0.387 µg/mL) |
| O=C(CCSc1ccc(Cl)cc1)Nc1nc(-c2ccccn2)cs1 | 3.9 (≈ 1.47 µg/mL) |

| Compound | MIC90 [µM] |
| --- | --- |
| CN(C)C1CCN(C(=O)c2csc(-c3cccc(Cl)c3Cl)n2)C1 (configuration not stated) | 8.5 (≈ 3.15 µg/mL) |
| Cc1ccc(NC(=O)C2COc3ccccc3C2)cc1Cl (configuration not stated) | 8.5 (≈ 2.57 µg/mL) |
| CN(C)CCCSc1nc(N2CCCC2)c2c(c1C#N)CCCC2 | 8.5 (≈ 2.93 µg/mL) |
| Fc1ccc(-c2cccc3ccc(N4CCNCC4)nc23)cc1 | 8.5 (≈ 2.61 µg/mL) |
| N[C@H]1CC[C@H](NCc2ccc(O)c(C(=O)NCc3ccc(Cl)c(Cl)c3)c2)CC1 | 8.5 (≈ 3.59 µg/mL) |
| Fc1ccc(-c2nnc3sc(Cc4ccccc4)nn23)cc1 | 8.6 (≈ 2.67 µg/mL) |
| COc1ccc(Nc2nc(CN3CCN(Cc4ccc(C#N)cc4)CC3)cs2)cc1 | 8.6 (≈ 3.61 µg/mL) |
| CCc1c(C)nc(-c2cccc(C(F)(F)F)c2)nc1N1CCNCC1 | 8.6 (≈ 3.01 µg/mL) |
| O=C(CCC(=O)NNC(=O)c1ccco1)NNC(=O)c1ccco1 | 8.6 (≈ 2.87 µg/mL) |
| CN1CCC(COC(=O)c2cn(C)c3ccc(Cl)cc23)CC1 | 8.7 (≈ 2.79 µg/mL) |
| CN(Cc1ccccc1)c1ncc(-c2ccc(CNCC3CCCO3)cc2)cn1 (configuration not stated) | 8.7 (≈ 3.38 µg/mL) |
| CCCn1nc(C(=O)N2CCN(c3ccccc3F)CC2)c2ccccc2c1=O | 8.7 (≈ 3.43 µg/mL) |
| CSc1ccc(C(=O)Nc2nc(-c3ccccn3)cs2)cc1 | 4.4 (≈ 1.44 µg/mL) |
| O=C(Nc1ccccc1-c1nc(C2CCC2)cs1)OCC1CCNCC1.O=C(O)C(F)(F)F | 6.4 |
| COc1ccc(-c2cccc(NC(=O)NC3CCCCC3)c2)cn1 | 8.8 (≈ 2.86 µg/mL) |
| CCn1c(-c2ccccc2)nc2c(-c3ccc(C)cc3)ncc(OCCCN)c21 | 8.8 (≈ 3.4 µg/mL) |
| c1ccc(CNc2ncc(-c3ccc(CNCC4CCCO4)cc3)cn2)cc1 (configuration not stated) | 8.8 (≈ 3.3 µg/mL) |
| CCCCNC(=O)N1CCN(Cc2cccc3ccccc23)CC1 | 8.8 (≈ 2.86 µg/mL) |
| Cc1ccc(NC(=O)c2nc(N3CCCN(C)CC3)ccc2Cl)cc1F | 8.8 (≈ 3.32 µg/mL) |

| Compound | MIC90 [µM] |
| --- | --- |
| Cc1cc(S(=O)(=O)c2ccccc2)cc2c(Nc3ccc(N4CCOCC4)cc3)c(C(N)=O)cnc12 | 8.8 (≈ 4.42 µg/mL) |
| COc1ccc(OC)c(S(=O)(=O)Nc2ccc(Nc3ccccc3)cc2OC)c1 | 8.8 (≈ 3.65 µg/mL) |
| Cc1cc(C)c2cc(CN(Cc3cccnc3)C(=O)c3ccccc3)c(Cl)nc2c1 | 8.8 (≈ 3.66 µg/mL) |
| CNC(=O)c1cc(Nc2ncc(F)c(N(C)c3ccc4c(C)[nH]nc4c3)n2)ccc1OCC1CCNCC1 | 8.8 (≈ 4.56 µg/mL) |
| Cc1ccc(N2C(=O)NC(=O)C(=Cc3ccc[nH]3)C2=O)cc1 | 8.8 (≈ 2.6 µg/mL) |
| CCc1nc2ccccc2n1CC(O)COc1cc(C)ccc1Cl (configuration not stated) | 9.7 (≈ 3.34 µg/mL) |
| Cc1cc(Oc2cccc(CN3CCCC3)c2)nc(NCCc2ccccc2)n1 | 8.9 (≈ 3.46 µg/mL) |
| Cc1cc(C)c2nc(N3CCN(C)CC3)cc(C)c2c1 | 8.9 (≈ 2.4 µg/mL) |
| CC(C)n1cc(CN2CCCC(C(=O)c3ccc(-c4ccccc4)cc3)C2)cn1 (configuration not stated) | 8.9 (≈ 3.45 µg/mL) |
| CC1CN(Cc2cccc(C(=O)NCc3ccc(F)c(-c4cccc(CN5CCN[C@@H](C)C5)c4)c3)c2)C(C)CN1 (some centres not stated) | 8.9 (≈ 4.84 µg/mL) |
| O=C(Nc1nnc(-c2cc(Cl)ccc2Cl)o1)c1ccc(Br)s1 | 8.9 (≈ 3.73 µg/mL) |
| N#Cc1nc(-c2ccccc2)oc1S(=O)(=O)c1ccc(Cl)cc1 | 3.6 (≈ 1.24 µg/mL) |
| CC(=O)NCCn1c(Sc2ccnc(N3CCN(c4ccncc4)CC3)n2)nnc1-c1ccccc1 | 4 (≈ 2.01 µg/mL) |
| O=C(Nc1ccc(N2CCNCC2)cc1)c1ccn2ncc(-c3cccc(Cl)c3)c2n1 | 8.5 (≈ 3.68 µg/mL) |
| c1cncc(NCc2ccc(-c3cc4ccncc4cc3OC3CCNCC3)s2)c1 | 8.3 (≈ 3.46 µg/mL) |
| CCCc1cc(=O)[nH]c(-n2nc(C)cc2NC(=O)CC(c2ccccc2)c2ccccc2)n1 | 7.5 (≈ 3.31 µg/mL) |
| COc1ccc2sc(Nc3nc(-c4ccccn4)cs3)nc2c1 | 3.5 (≈ 1.19 µg/mL) |
| Cc1ccc2[nH]c(C3CCCNC3)c(-c3ccncc3)c2c1 (configuration not stated) | 8.9 (≈ 2.59 µg/mL) |
| Cc1ccc2nc(N(CCCn3ccnc3)C(=O)C=Cc3cccs3)sc2c1 | 8.2 (≈ 3.35 µg/mL) |
